Where two headings read alike, the source gives them in different places.
Test: Plasma pharmacokinetics of bimiralisib, non-compartmental analysis (LC-MS)
Format: in vivo, human
Details: for AUC(0-t) / Cmax / Tmax: human, plasma, oral; for Cmax: read-out: Cmax Mean (%CV); for Tmax: read-out: Tmax Median, (Range)
Protocol: Blood samples were collected to enable full PK profiling of bimiralisib. The PK samples were taken pre-dose and at 0.5, 1, 2, 4, 6, 8, and 24 h post-dosing in the three schedules, with additional timepoints depending on the schedule (48 h in the continuous schedule, 12, 16, and 48 h in intermittent schedule A and 12, 16, and 72 h in intermittent schedule B). PK sampling was repeated on cycle 1 Day 8 (continuous schedule: pre-dose and 1 h post-dose; intermittent schedules A and B: pre-dose and 0.5, 1, 2, 4, 6, 8, and 24 h post-dose), on cycle 1 Day 15 (continuous schedule: pre-dose and 0.5, 1, 2, 4, 6 and 8 h post-dose; intermittent schedules A and B: pre-dose and 4 h post-dose), and on cycle 2 Day 1 (continuous dosing: pre-dose and 1 h post-dose). Samples were sent to a central laboratory for analysis using liquid-chromatography mass spectrometry. The pharmacokinetics of bimiralisib were determined by non-compartmental analysis. Area under the concentration vs. time curve (AUC) was calculated using the linear up log down trapezoidal method. Accumulation was calculated as the ratio of cycle 1 on Day 15 AUC0–8h versus cycle 1 on Day -3 AUC0–8h.

[1] = 80 mg, Continuous Dosing, 80 mg, Day 15, 7 patients
[2] = 80 mg, Continuous Dosing, 80 mg, Day -3, 11 patients
[3] = 80 mg, Intermittent Dose Schedule A, 80 mg, Day 8, 3 patients
[4] = 80 mg, Intermittent Dose Schedule A, 80 mg, Day -3, 4 patients
[5] = 80 mg, Intermittent Dose Schedule B, 80 mg, Day 1, 4 patients
[6] = 80 mg, Intermittent Dose Schedule B, 80 mg, Day 8, 4 patients
[7] = 100 mg, Continuous Dosing, 100 mg, Day 1, 5 patients
[8] = 100 mg, Continuous Dosing, 100 mg, Day 15, 2 patients
[9] = 100 mg, Intermittent Dose Schedule A, 100 mg, Day -3, 4 patients
[10] = 100 mg, Intermittent Dose Schedule B, 100 mg, Day 1, 7 patients
[11] = 100 mg, Intermittent Dose Schedule B, 100 mg, Day 8, 6 patients
[12] = 120 mg, Continuous Dosing, 120 mg, Day 1, 5 patients
[13] = 120 mg, Continuous Dosing, 120 mg, Day 15, 1 patient
[14] = 120 mg, Intermittent Dose Schedule A, 120 mg, Day 8, 3 patients

SMILES: Nc1cc(C(F)(F)F)c(-c2nc(N3CCOCC3)nc(N3CCOCC3)n2)cn1 [bimiralisib, 5-(4,6-Dimorpholino-1,3,5-triazin-2-yl)-4-(trifluoromethyl)pyridin-2-amine]
- Dose proportionality of concentration-time data (all dosing schedules, 80–200 mg): not proportional to doses
- Median half-life, calculated from accumulation (continuous schedule, range < 6–146 h): 39.5 h
- Median accumulation ratio (cycle 1 Day 15 AUC0–8h versus Day -3 AUC0–8h) (continuous schedule, range, <1.0–9.3): 2.9
- AUC(0-t) (80 mg, Continuous Dosing, 80 mg, Day 15, 7 patients, read-out: AUC0–8 Geometric Mean (%CV)): 4090 ng·h/mL
- Cmax [1]: 766 ng/mL
- Tmax [1]: 1 h
- AUC(0-t) (80 mg, Continuous Dosing, 80 mg, Day -3, 11 patients, read-out: AUC0–8 Geometric Mean (%CV)): 1530 ng·h/mL
- AUC(0-t) (80 mg, Continuous Dosing, 80 mg, Day -3, 11 patients, read-out: AUC0–24 Geometric Mean (%CV)): 4290 ng·h/mL
- Cmax [2]: 407 ng/mL
- Tmax [2]: 2 h
- AUC(0-t) (80 mg, Intermittent Dose Schedule A, 80 mg, Day 8, 3 patients, read-out: AUC0–8 Geometric Mean (%CV)): 2350 ng·h/mL
- Cmax [3]: 614 ng/mL
- Tmax [3]: 1 h
- AUC(0-t) (80 mg, Intermittent Dose Schedule A, 80 mg, Day 8, n = 1, read-out: AUC0–24 Geometric Mean (%CV)): 6740 ng·h/mL
- AUC(0-t) (80 mg, Intermittent Dose Schedule A, 80 mg, Day -3, 4 patients, read-out: AUC0–8 Geometric Mean (%CV)): 1580 ng·h/mL
- AUC(0-t) (80 mg, Intermittent Dose Schedule A, 80 mg, Day -3, 4 patients, read-out: AUC0–24 Geometric Mean (%CV)): 3540 ng·h/mL
- Cmax [4]: 410 ng/mL
- Tmax [4]: 1.5 h
- AUC(0-t) (80 mg, Intermittent Dose Schedule B, 80 mg, Day 1, 4 patients, read-out: AUC0–8 Geometric Mean (%CV)): 1680 ng·h/mL
- AUC(0-t) (80 mg, Intermittent Dose Schedule B, 80 mg, Day 1, 4 patients, read-out: AUC0–24 Geometric Mean (%CV)): 4000 ng·h/mL
- Cmax [5]: 341 ng/mL
- Tmax [5]: 3 h
- AUC(0-t) (80 mg, Intermittent Dose Schedule B, 80 mg, Day 8, 4 patients, read-out: AUC0–8 Geometric Mean (%CV)): 2600 ng·h/mL
- Cmax [6]: 681 ng/mL
- Tmax [6]: 1.5 h
- AUC(0-t) (80 mg, Intermittent Dose Schedule B, 80 mg, Day 8, n = 3, read-out: AUC0–24 Geometric Mean (%CV)): 6350 ng·h/mL
- AUC(0-t) (100 mg, Continuous Dosing, 100 mg, Day 1, 5 patients, read-out: AUC0–8 Geometric Mean (%CV)): 1690 ng·h/mL
- AUC(0-t) (100 mg, Continuous Dosing, 100 mg, Day 1, 5 patients, read-out: AUC0–24 Geometric Mean (%CV)): 4660 ng·h/mL
- Cmax [7]: 441 ng/mL
- Tmax [7]: 1.7 h
- AUC(0-t) (100 mg, Continuous Dosing, 100 mg, Day 15, 2 patients, read-out: AUC0–8 Geometric Mean (%CV)): 5750 ng·h/mL
- Cmax [8]: 1110 ng/mL
- Tmax [8]: 2 h
- AUC(0-t) (100 mg, Intermittent Dose Schedule A, 100 mg, Day 8, 3 patients, read-out: AUC0–8 Geometric Mean (%CV)): 3910 ng·h/mL
- Tmax (100 mg, Intermittent Dose Schedule A, 100 mg, Day 8, 3 patients): 1 h
- AUC(0-t) (100 mg, Intermittent Dose Schedule A, 100 mg, Day 8, n = 2, read-out: AUC0–24 Geometric Mean (%CV)): 12400 ng·h/mL
- AUC(0-t) (100 mg, Intermittent Dose Schedule A, 100 mg, Day -3, 4 patients, read-out: AUC0–8 Geometric Mean (%CV)): 1970 ng·h/mL
- AUC(0-t) (100 mg, Intermittent Dose Schedule A, 100 mg, Day -3, 4 patients, read-out: AUC0–24 Geometric Mean (%CV)): 4170 ng·h/mL
- Cmax [9]: 543 ng/mL
- Tmax [9]: 1 h
- AUC(0-t) (100 mg, Intermittent Dose Schedule B, 100 mg, Day 1, 7 patients, read-out: AUC0–8 Geometric Mean (%CV)): 1920 ng·h/mL
- AUC(0-t) (100 mg, Intermittent Dose Schedule B, 100 mg, Day 1, 7 patients, read-out: AUC0–24 Geometric Mean (%CV)): 4520 ng·h/mL
- Cmax [10]: 562 ng/mL
- Tmax [10]: 2 h
- AUC(0-t) (100 mg, Intermittent Dose Schedule B, 100 mg, Day 8, 6 patients, read-out: AUC0–8 Geometric Mean (%CV)): 2880 ng·h/mL
- Cmax [11]: 714 ng/mL
- Tmax [11]: 1.5 h
- AUC(0-t) (100 mg, Intermittent Dose Schedule B, 100 mg, Day 8, n = 4, read-out: AUC0–24 Geometric Mean (%CV)): 6200 ng·h/mL
- AUC(0-t) (120 mg, Continuous Dosing, 120 mg, Day 1, 5 patients, read-out: AUC0–8 Geometric Mean (%CV)): 2990 ng·h/mL
- AUC(0-t) (120 mg, Continuous Dosing, 120 mg, Day 1, 5 patients, read-out: AUC0–24 Geometric Mean (%CV)): 7600 ng·h/mL
- Cmax [12]: 876 ng/mL
- Tmax [12]: 2 h
- AUC(0-t) (120 mg, Continuous Dosing, 120 mg, Day 15, 1 patient, read-out: AUC0–8 Geometric Mean (%CV)): 6430 ng·h/mL
- Cmax [13]: 982 ng/mL
- Tmax [13]: 8 h
- AUC(0-t) (120 mg, Intermittent Dose Schedule A, 120 mg, Day 8, 3 patients, read-out: AUC0–8 Geometric Mean (%CV)): 3710 ng·h/mL
- AUC(0-t) (120 mg, Intermittent Dose Schedule A, 120 mg, Day 8, 3 patients, read-out: AUC0–24 Geometric Mean (%CV)): 8940 ng·h/mL
- Cmax [14]: 872 ng/mL
- Tmax [14]: 1 h

From article PMC10969742, “A Phase I Study of the Oral Dual-Acting Pan-PI3K/mTOR Inhibitor Bimiralisib in Patients with Advanced Solid Tumors” (Cancers, 2024)
